Reference: the supplement of paper PMC10307832

Legend:
Assay in all cases: relative viability (nuclei count vs DMSO), 5 days (fraction); higher = more cells survive
CUDC-101 + Luminespib = compound: C#Cc1cccc(Nc2ncnc3cc(OC)c(OCCCCCCC(=O)NO)cc23)c1 [CUDC-101] + CCNC(=O)c1noc(-c2cc(C(C)C)c(O)cc2O)c1-c1ccc(CN2CCOCC2)cc1 [Luminespib] (partner 0.01 µM)
Outline: (§1)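 Cells from lung cancer lines were seeded into 1536-well plates and, one day later, dosed by pin tool. Treatments were either a single drug or a fixed dose of an anchor drug with five library-drug doses (not always all listed) in √10 steps. After 5 days, nuclei were stained in a one-step fixation (final 0.05% Triton X-100, 1% formaldehyde, 1 ug/ml Hoechst) and counted on 4× images, and relative viability is the treated-to-vehicle nuclei ratio, as the median of duplicate plates.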

Vandetanib + Navitoclax = compound: COc1cc2/c(=N/c3ccc(Br)cc3F)nc[nH]c2cc1OCC1CCN(C)CC1 [Vandetanib] + CC1(C)CCC(c2ccc(Cl)cc2)=C(CN2CCN(c3ccc(C(=O)NS(=O)(=O)c4ccc(N[C@H](CCN5CCOCC5)CSc5ccccc5)c(S(=O)(=O)C(F)(F)F)c4)cc3)CC2)C1 [Navitoclax] (partner 0.5 µM)
Outline: as §1

CUDC-101 + Decitabine = compound: C#Cc1cccc(Nc2ncnc3cc(OC)c(OCCCCCCC(=O)NO)cc23)c1 [CUDC-101] + Nc1ncn([C@H]2C[C@H](O)[C@@H](CO)O2)c(=O)n1 [Decitabine] (partner 2 µM)
Outline: as §1

NVP-TAE684 + Phenformin = compound: COc1cc(N2CCC(N3CCN(C)CC3)CC2)ccc1Nc1ncc(Cl)c(Nc2ccccc2S(=O)(=O)C(C)C)n1 [NVP-TAE684] + N=C(N)NC(=N)NCCc1ccccc1 [Phenformin] (partner 250 µM)
Outline: as §1

| Cell Line | relative viability (CUDC-101 + Luminespib; first compound 0.01 µM) | relative viability (CUDC-101 + Luminespib; first compound 0.03162 µM) | relative viability (CUDC-101 + Luminespib; first compound 0.1 µM) | relative viability (CUDC-101 + Luminespib; first compound 0.3162 µM) | relative viability (CUDC-101 + Luminespib; first compound 1 µM) | relative viability (Vandetanib + Navitoclax; first compound 0.02 µM) | relative viability (Vandetanib + Navitoclax; first compound 0.06325 µM) | relative viability (Vandetanib + Navitoclax; first compound 0.2 µM) | relative viability (Vandetanib + Navitoclax; first compound 0.6325 µM) | relative viability (Vandetanib + Navitoclax; first compound 2 µM) | relative viability (CUDC-101 + Decitabine; first compound 0.01 µM) | relative viability (CUDC-101 + Decitabine; first compound 0.03162 µM) | relative viability (CUDC-101 + Decitabine; first compound 0.1 µM) | relative viability (CUDC-101 + Decitabine; first compound 0.3162 µM) | relative viability (CUDC-101 + Decitabine; first compound 1 µM) | relative viability (NVP-TAE684 + Phenformin; first compound 0.2 µM) | relative viability (NVP-TAE684 + Phenformin; first compound 0.6325 µM) | relative viability (NVP-TAE684 + Phenformin; first compound 2 µM) |
| --- | --- | --- | --- | --- | --- | --- | --- | --- | --- | --- | --- | --- | --- | --- | --- | --- | --- | --- |
| 201T | 1.03 | 0.988 | 0.981 | 1.08 | 1.02 | 1.1 | 1.19 | 1.2 | 1.15 | 1.19 | 0.835 | 0.863 | 0.844 | 0.842 | 0.828 | 0.421 | 0.437 | 0.38 |
| A549 | – | – | – | – | – | 1.12 | 1.23 | 1.12 | 1.08 | 1.22 | 0.297 | 0.277 | 0.218 | 0.286 | 0.276 | 0.153 | 0.171 | 0.122 |
| A-427 | 0.919 | 0.92 | 0.864 | 0.75 | 0.55 | 0.931 | 0.952 | 0.992 | 0.935 | 0.874 | 0.617 | 0.619 | 0.591 | 0.568 | 0.554 | 0.285 | 0.257 | 0.221 |
| ABC-1 | 0.519 | 0.368 | 0.721 | 0.586 | 0.258 | – | – | – | – | – | 0.989 | 0.92 | 0.992 | 0.985 | 1.03 | 0.218 | 0.226 | 0.122 |
| BEN | 0.534 | 0.402 | 0.467 | 0.302 | 0.37 | 0.0787 | 0.0663 | 0.063 | 0.0857 | 0.0698 | 0.724 | 0.656 | 0.709 | 0.649 | 0.498 | 0.257 | 0.285 | 0.231 |
| CAL-12T | 0.525 | 0.337 | 0.337 | 0.556 | 0.36 | 1.22 | 1.19 | 1.37 | 1.28 | 1.13 | – | – | – | – | – | 0.365 | 0.472 | 0.117 |
| COR-L23 | 0.801 | 0.734 | 0.658 | 0.632 | 0.353 | 0.95 | 0.915 | 0.114 | 1.07 | 0.954 | 0.432 | 0.383 | 0.332 | 0.376 | 0.164 | 0.329 | 0.406 | 0.201 |
| Calu-6 | – | – | – | – | – | 0.891 | 0.761 | 0.973 | 0.895 | 0.734 | – | – | – | – | – | – | – | – |
| EBC-1 | – | – | – | – | – | 0.36 | 0.39 | 0.449 | 0.366 | 0.38 | – | – | – | – | – | – | – | – |
| HCC-78 | – | – | – | – | – | 0.732 | 0.649 | 0.828 | 0.887 | 0.573 | 0.738 | 0.591 | 0.719 | 0.624 | 0.433 | 0.658 | 0.442 | 0.422 |
| HCC-366 | – | – | – | – | – | 1.09 | 1 | 1.06 | 1.06 | 1.05 | 0.335 | 0.33 | 0.339 | 0.383 | 0.354 | 0.66 | 0.629 | 0.588 |
| IA-LM | – | – | – | – | – | 0.648 | 0.661 | 0.878 | 1.1 | 1.29 | – | – | – | – | – | – | – | – |
| LCLC-103H | 0.975 | 0.931 | 0.943 | 0.92 | 0.754 | – | – | – | – | – | 0.692 | 0.695 | 0.722 | 0.657 | 0.633 | 0.297 | 0.356 | 0.276 |
| NCI-H358 | 0.263 | 0.407 | 0.225 | 0.659 | 0.448 | – | – | – | – | – | 0.209 | 0.204 | 0.174 | 0.206 | 0.112 | 0.285 | 0.226 | 0.0829 |
| NCI-H522 | 1.18 | 1.19 | 1.03 | 1.66 | 0.686 | – | – | – | – | – | 0.58 | 0.622 | 0.761 | 0.616 | 0.677 | 0.685 | 0.777 | 0.608 |
| NCI-H650 | 0.959 | 0.688 | 0.912 | 0.957 | 0.619 | – | – | – | – | – | 0.359 | 0.366 | 0.323 | 0.286 | 0.264 | 0.462 | 0.371 | 0.325 |
| NCI-H661 | 0.985 | 0.975 | 0.876 | 0.835 | 0.674 | – | – | – | – | – | 0.544 | 0.497 | 0.487 | 0.571 | 0.307 | 0.275 | 0.272 | 0.242 |
| NCI-H1299 | – | – | – | – | – | 1 | 1.01 | 1.05 | 1.08 | 1.03 | – | – | – | – | – | – | – | – |
| NCI-H1563 | 0.447 | 0.526 | 0.506 | 0.531 | 0.495 | – | – | – | – | – | – | – | – | – | – | 0.662 | 0.645 | 0.53 |
| NCI-H1623 | 0.469 | 0.46 | 0.445 | 0.632 | 0.392 | – | – | – | – | – | – | – | – | – | – | 0.552 | 0.598 | 0.484 |
| NCI-H1648 | – | – | – | – | – | – | – | – | – | – | 0.548 | 0.519 | 0.439 | 0.451 | 0.324 | – | – | – |
| NCI-H1703 | – | – | – | – | – | 1.15 | – | 1.27 | 0.575 | 0.256 | – | – | – | – | – | – | – | – |
| NCI-H2228 | 0.114 | 0.164 | 0.169 | 0.19 | 0.188 | 0.917 | 0.482 | – | 0.938 | 0.695 | – | – | – | – | – | 0.23 | 0.158 | 0.113 |
| NCI-H2342 | 0.764 | 0.644 | 0.829 | 0.737 | 0.692 | – | – | – | – | – | 0.737 | 0.718 | 0.739 | 0.777 | 0.709 | 0.532 | 0.614 | 0.361 |
| SW 900 | 0.168 | 0.181 | 0.185 | 0.157 | 0.174 | – | – | – | – | – | 0.428 | 0.405 | 0.426 | 0.397 | 0.33 | 0.592 | 0.474 | 0.385 |
